{
  "source": "patent US20150297733A1",
  "about": "(TRIMEL BIOPHARMA SRL, priority 2012, published 2015)",
  "key": {"[1]": {"settings": "dissolved in polyethylene glycol (200 mg/ml); high variations; cited from earlier work"}, "[2]": {"settings": "nasal, cited from earlier work"}, "[3]": {"target": "T1, sex hormone binding globulin (SHBG) (Homo sapiens, UniProt P04278)", "T1 sequence (P04278 30-402)": "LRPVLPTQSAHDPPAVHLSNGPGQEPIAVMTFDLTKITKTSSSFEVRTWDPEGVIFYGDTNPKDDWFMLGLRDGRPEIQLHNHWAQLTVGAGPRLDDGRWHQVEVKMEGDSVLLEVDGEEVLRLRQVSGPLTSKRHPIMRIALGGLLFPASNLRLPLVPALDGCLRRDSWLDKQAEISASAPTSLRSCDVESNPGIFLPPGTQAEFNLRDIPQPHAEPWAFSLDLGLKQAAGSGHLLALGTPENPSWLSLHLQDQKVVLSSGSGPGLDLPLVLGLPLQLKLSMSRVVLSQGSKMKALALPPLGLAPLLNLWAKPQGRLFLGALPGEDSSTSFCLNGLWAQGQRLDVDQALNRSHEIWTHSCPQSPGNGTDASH", "settings": "cited from earlier work"}, "[4]": {"test": "Solubility of testosterone in water, oils, solvents and vehicles"}, "[5]": {"settings": "nasal, cited from earlier work", "remark": "listed apart in the source"}},
  "note": "Like-named read-outs stand apart in the source and are kept apart here.",
  "data": [
    {"compound": "CC(=O)[C@H]1CC[C@H]2[C@@H]3CCC4=CC(=O)CC[C@]4(C)[C@H]3CC[C@]12C", "note": "[progesterone]", "values": [
      {"measurement": "duration of serum level", "setting": "[1]", "result": "at least 8 hours"},
      {"measurement": "Tmax", "setting": "[2]; co-ground and co-lyophilized progesterone/cyclodextrin powder mixtures", "result": "2 to 5", "unit": "min"},
      {"measurement": "time of serum level decrease", "setting": "[2]; progesterone/cyclodextrin powder mixtures", "result": "≤ 20", "unit": "min"}
    ]},
    {"compound": "C[C@]12CC[C@H]3[C@@H](CCC4=CC(=O)CC[C@@]43C)[C@@H]1CC[C@@H]2O", "note": "[Testosterone]", "values": [
      {"measurement": "fraction remaining unbound (free)", "setting": "[3]; in men", "result": "about 2%"},
      {"measurement": "fraction remaining unbound (free)", "setting": "[3]; in women", "result": "up to 3%"},
      {"measurement": "amount dissolved by diethyleneglycol ethyl ether alone", "setting": "[4]", "result": "more than 10%"},
      {"measurement": "amount dissolved by dimethyl isosorbide (DMI)", "setting": "[4]", "result": "more than 12%"},
      {"measurement": "testosterone levels in the gel allowed by DMI with the other excipients", "setting": "[4]", "result": "at least 8.0%"},
      {"measurement": "testosterone solubility in the oil based gel", "setting": "[4]; oil based TBS-1A gel as printed", "result": "≤ 4.5", "unit": "%"}
    ]},
    {"compound": "CN(C)CC(=O)O[C@H]1CC[C@H]2[C@@H]3CCC4=CC(=O)CC[C@]4(C)[C@H]3CC[C@]12C", "note": "[testosterone 17β-N,N-dimethylglycinate]", "values": [
      {"measurement": "time to peak plasma concentration", "setting": "[5]; 25 mg dose", "result": "≤ 12", "unit": "min"},
      {"measurement": "time to peak plasma concentration", "setting": "[5]; 50 mg dose", "result": "≤ 20", "unit": "min"}
    ]}
  ]
}
